Here are results for 17 compounds from patent US20160326142A1, “PYRAZOLE CARBOXAMIDE COMPOUNDS, COMPOSITIONS AND METHODS OF USE” (Genentech, Inc., priority 2012, published 2016).

One may read the Ki as the dissociation constant of the complex between target and ligand, obtained from inhibition or displacement. Lower therefore signals higher affinity.

Structures are written as SMILES.

The test addresses T1, ITK (Homo sapiens, UniProt Q08881).
T1 construct: purchased Invitrogen PV3875
T1 sequence (Q08881 1-620): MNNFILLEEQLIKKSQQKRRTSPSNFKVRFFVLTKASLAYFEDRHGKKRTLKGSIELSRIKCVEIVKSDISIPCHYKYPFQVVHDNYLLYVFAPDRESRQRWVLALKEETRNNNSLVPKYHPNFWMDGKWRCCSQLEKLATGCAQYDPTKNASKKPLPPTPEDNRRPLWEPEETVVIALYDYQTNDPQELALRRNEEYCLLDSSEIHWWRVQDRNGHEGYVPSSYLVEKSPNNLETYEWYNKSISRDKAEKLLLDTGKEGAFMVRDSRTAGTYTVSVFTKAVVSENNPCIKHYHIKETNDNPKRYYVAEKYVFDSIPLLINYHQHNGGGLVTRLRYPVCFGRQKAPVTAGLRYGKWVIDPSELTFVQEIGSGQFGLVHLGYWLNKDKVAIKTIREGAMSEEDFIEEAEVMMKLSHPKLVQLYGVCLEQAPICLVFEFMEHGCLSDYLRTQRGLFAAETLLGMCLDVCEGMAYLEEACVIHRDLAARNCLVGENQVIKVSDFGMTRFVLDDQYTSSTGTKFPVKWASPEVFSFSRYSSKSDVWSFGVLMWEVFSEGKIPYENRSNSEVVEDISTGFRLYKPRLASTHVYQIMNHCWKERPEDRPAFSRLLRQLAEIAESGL
Briefly: ITK enzyme assay (Caliper or LCMS peptide phosphorylation). The class given is biochemical. Particulars: purified ITK (Invitrogen PV3875), 20 μM ATP, Ki by Morrison's quadratic equation. The procedure, abridged:
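Purified human ITK peptide phosphorylation, quenched with EDTA (50 mM final) for Caliper LabChip separation or TCA (5% v/v final) for UPLC-MS/MS MRM quantification. Ki derived via Morrison tight-binding equation, corrected for competitive inhibition using ATP concentration relative to Km,app.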
In turn, `CC1CC(C(c2ccccc2)n2cc(NC(=O)c3n[nH]c4c3CCC(C)(C)C4)cn2)CCS1(=O)=O` (single isomer, unassigned) [Example 139h, 6,6-dimethyl-N-(1-((2-methyl-1,1-dioxidotetrahydro-2H-thiopyran-4-yl)(phenyl)methyl)-1H-pyrazol-4-yl)-4,5,6,7-tetrahydro-1H-indazole-3-carboxamide] gave a Ki of 12 nM.

Regarding `CC1(C)CCc2c(C(=O)Nc3cnn(C(c4ccccc4)C4CC[N+](C)([O-])CC4)c3)n[nH]c2C1` (single isomer, unassigned) [Example 140a, 4-((4-(6,6-dimethyl-4,5,6,7-tetrahydro-1H-indazole-3-carboxamido)-1H-pyrazol-1-yl)(phenyl)methyl)-1-methylpiperidine 1-oxide], the Ki came to 0.4 nM.

Regarding `CC1(C)CCc2c(C(=O)Nc3cnn(C(c4ccccc4)C4CC[N+](C)([O-])CC4)c3)n[nH]c2C1` (single isomer, unassigned) [Example 140b, 4-((4-(6,6-dimethyl-4,5,6,7-tetrahydro-1H-indazole-3-carboxamido)-1H-pyrazol-1-yl)(phenyl)methyl)-1-methylpiperidine 1-oxide], the affinity, expressed as Ki, was 14 nM.

`CC12Cc3[nH]nc(C(=O)Nc4cnn(C(c5ccccc5)C5CC[S+]([O-])CC5)c4)c3CC1C2(F)F` (single isomer, unassigned) [Example 142a, 5,5-difluoro-5a-methyl-N-(1-((1-oxidotetrahydro-2H-thiopyran-4-yl)(phenyl)methyl)-1H-pyrazol-4-yl)-1,4,4a,5,5a,6-hexahydrocyclopropa[f]indazole-3-carboxamide] displayed a Ki of less than 0.1 nM.

As to `CC12Cc3[nH]nc(C(=O)Nc4cnn(C(c5ccccc5)C5CC[S+]([O-])CC5)c4)c3CC1C2(F)F` (single isomer, unassigned) [Example 142b, 5,5-difluoro-5a-methyl-N-(1-((1-oxidotetrahydro-2H-thiopyran-4-yl)(phenyl)methyl)-1H-pyrazol-4-yl)-1,4,4a,5,5a,6-hexahydrocyclopropa[f]indazole-3-carboxamide], the Ki is less than 0.1 nM.

As to `CC12Cc3[nH]nc(C(=O)Nc4cnn(C(c5ccccc5)C5CCCCS5(=O)=O)c4)c3CC1C2` (single isomer, unassigned) [Example 143a, N-(1-((1,1-dioxidotetrahydro-2H-thiopyran-2-yl)(phenyl)methyl)-1H-pyrazol-4-yl)-5a-methyl-1,4,4a,5,5a,6-hexahydrocyclopropa[f]indazole-3-carboxamide], the Ki was less than 0.1 nM.

In the case of `CC12Cc3[nH]nc(C(=O)Nc4cnn(C(c5ccccc5)C5CCCCS5(=O)=O)c4)c3CC1C2` (single isomer, unassigned) [Example 143b, N-(1-((1,1-dioxidotetrahydro-2H-thiopyran-2-yl)(phenyl)methyl)-1H-pyrazol-4-yl)-5a-methyl-1,4,4a,5,5a,6-hexahydrocyclopropa[f]indazole-3-carboxamide], the Ki came out at 2 nM.

As for `CC12Cc3[nH]nc(C(=O)Nc4cnn(C(c5ccccc5)C5CCCCS5(=O)=O)c4)c3CC1C2` (single isomer, unassigned) [Example 143c, N-(1-((1,1-dioxidotetrahydro-2H-thiopyran-2-yl)(phenyl)methyl)-1H-pyrazol-4-yl)-5a-methyl-1,4,4a,5,5a,6-hexahydrocyclopropa[f]indazole-3-carboxamide], the Ki stood at 2 nM.

For `CC12Cc3[nH]nc(C(=O)Nc4cnn(C(c5ccccc5)C5CCCCS5(=O)=O)c4)c3CC1C2` (single isomer, unassigned) [Example 143d, N-(1-((1,1-dioxidotetrahydro-2H-thiopyran-2-yl)(phenyl)methyl)-1H-pyrazol-4-yl)-5a-methyl-1,4,4a,5,5a,6-hexahydrocyclopropa[f]indazole-3-carboxamide], the Ki was less than 0.1 nM.

Compound `CC1(C)CCc2c(C(=O)Nc3cnn(C(c4cccnc4)C4CCCCS4(=O)=O)c3)n[nH]c2C1` (single isomer, unassigned) [Example 144a, N-(1-((1,1-dioxidotetrahydro-2H-thiopyran-2-yl)(pyridin-3-yl)methyl)-1H-pyrazol-4-yl)-6,6-dimethyl-4,5,6,7-tetrahydro-1H-indazole-3-carboxamide] showed a Ki of 0.1 nM.

Take `CC1(C)CCc2c(C(=O)Nc3cnn(C(c4cccnc4)C4CCCCS4(=O)=O)c3)n[nH]c2C1` (single isomer, unassigned) [Example 144b, N-(1-((1,1-dioxidotetrahydro-2H-thiopyran-2-yl)(pyridin-3-yl)methyl)-1H-pyrazol-4-yl)-6,6-dimethyl-4,5,6,7-tetrahydro-1H-indazole-3-carboxamide]: the Ki came out at 3 nM.

`CC1(C)CCc2c(C(=O)Nc3cnn(C(c4cccnc4)C4CCCCS4(=O)=O)c3)n[nH]c2C1` (single isomer, unassigned) [Example 144c, N-(1-((1,1-dioxidotetrahydro-2H-thiopyran-2-yl)(pyridin-3-yl)methyl)-1H-pyrazol-4-yl)-6,6-dimethyl-4,5,6,7-tetrahydro-1H-indazole-3-carboxamide] gave a Ki of 0.1 nM.

Compound `CC1(C)CCc2c(C(=O)Nc3cnn(C(c4cccnc4)C4CCCCS4(=O)=O)c3)n[nH]c2C1` (single isomer, unassigned) [Example 144d, N-(1-((1,1-dioxidotetrahydro-2H-thiopyran-2-yl)(pyridin-3-yl)methyl)-1H-pyrazol-4-yl)-6,6-dimethyl-4,5,6,7-tetrahydro-1H-indazole-3-carboxamide] had a Ki of 2 nM.

In turn, `CC12Cc3[nH]nc(C(=O)Nc4cnn(C(c5cccnc5)C5CC[S+]([O-])CC5)c4)c3CC1C2` (single isomer, unassigned) [Example 146a, 5a-methyl-N-(1-((1-oxidotetrahydro-2H-thiopyran-4-yl)(pyridin-3-yl)methyl)-1H-pyrazol-4-yl)-1,4,4a,5,5a,6-hexahydrocyclopropa[f]indazole-3-carboxamide] yielded a Ki of 0.1 nM.

As for `CC12Cc3[nH]nc(C(=O)Nc4cnn(C(c5cccnc5)C5CC[S+]([O-])CC5)c4)c3CC1C2` (single isomer, unassigned) [Example 146b, 5a-methyl-N-(1-((1-oxidotetrahydro-2H-thiopyran-4-yl)(pyridin-3-yl)methyl)-1H-pyrazol-4-yl)-1,4,4a,5,5a,6-hexahydrocyclopropa[f]indazole-3-carboxamide], the inhibition constant (Ki) amounted to 2 nM.

On to `CC12Cc3[nH]nc(C(=O)Nc4cnn(C(c5cccnc5)C5CC[S+]([O-])CC5)c4)c3CC1C2` (single isomer, unassigned) [Example 146c, 5a-methyl-N-(1-((1-oxidotetrahydro-2H-thiopyran-4-yl)(pyridin-3-yl)methyl)-1H-pyrazol-4-yl)-1,4,4a,5,5a,6-hexahydrocyclopropa[f]indazole-3-carboxamide], for which the Ki amounted to 0.1 nM.

In turn, `CC12Cc3[nH]nc(C(=O)Nc4cnn(C(c5cccnc5)C5CC[S+]([O-])CC5)c4)c3CC1C2` (single isomer, unassigned) [Example 146d, 5a-methyl-N-(1-((1-oxidotetrahydro-2H-thiopyran-4-yl)(pyridin-3-yl)methyl)-1H-pyrazol-4-yl)-1,4,4a,5,5a,6-hexahydrocyclopropa[f]indazole-3-carboxamide] came in with a Ki of 2 nM.
